Measurements reported in patent US20060216266A1, “Absorbable alpha-cyanoacrylate compositions” (priority 2005, published 2006).

Tests used:
[1] = Lap shear testing using pig skin; conditions: 1/2" x 1" overlap, about 100 μl adhesive, cure 20~30 min, Instron pulling rate 5 mm/min, about 10 joints
Procedure: General Procedure for Lap Shear Testing Using Pig Skin
Fresh pig skin was harvested from the back of the pig within 5 hours post sacrifice. The hair was removed by trimming and shaving to expose a smooth skin surface. The fat attached to the inside skin surface was trimmed away. The skin was cut into 2″×1″ coupons and covered by saline moist paper towel before use.
The external surface of the skin was used as bonding surface to prepare the lap shear joint samples.
The coupons were patted dry prior to forming the lap shear joint. About 1 00 μl of adhesive was deposited to one coupon within ½″ from the nearer end and smoothed to cover a ½″×1″ area (FIG. 1). The other coupon was placed over the area of the coupon with applied adhesive to form an overlap of ½″×1″. A 1 lb weight was placed on top of the overlap area. The joint was allowed to cure for 20˜30 min and the strength of the joint was tested as described below.
The strength of the cured joint was tested using an Instron (Model 5544) with a pulling rate of 5 mm/min. The maximum load for the joint to fail was recorded.
Typically, about 10 joint samples were tested for each adhesive.

[2] = Glass transition temperature of polymer film; assay type: physicochemical; conditions: adhesive polymer formed from the monomer
Procedure: A 1″×1″ Prolene mesh (Ethicon, Inc.) was briefly rinsed with 0.5% wt NaHCO3 aqueous solution and patted dry. The mesh was placed on a freshly prepared Agar plate in a petri dish and about 100 mg of monomer adhesive was applied and spread evenly across the mesh. The monomer adhesive was allowed to cure completely overnight with the petri dish covered and sealed with parafilm. The fully cured polymer film formed over the mesh was removed and rinsed with deionized water to remove any Agar attached and patted dry with paper towel. The thickness of the polymer film was about 0.6 mm.

[3] = Bonding of two moist fingertips by monomer; conditions: very small amount of monomer placed between two moist fingertips

| Glass Transition Temperature (Tg, ° C.) [2] | SMILES | Load (maximum load for the lap shear joint to fail) [1] | Bonding of fingertips [3] |
| --- | --- | --- | --- |
|  | C=C(C#N)C(=O)OC(CCCC)C(=O)OCC (stereo not drawn) [Et-α-CPL-CA, 2-(2-Cyano-acryloyloxy)-hexanoic acid ethyl ester] | 1.26 ± 0.29 Ib |  |
| 32 °C | C=C(C#N)C(=O)OC(C)CC(=O)OCC (stereo not drawn) [Et-β-HBT-CA, 3-(2-Cyano-acryloyloxy)-butyric acid ethyl ester] | 4.09 ± 0.48 Ib | bonded the fingertips strongly within one minute |
|  | C=C(C#N)C(=O)OCCCCCC(=O)OCC [Et-ε-CPL-CA, 6-(2-Cyano-acryloyloxy)-hexanoic acid ethyl ester] | 3.68 ± 0.64 Ib |  |
| −11 °C | C=C(C#N)C(=O)OC(CCC)CC(=O)OCC (stereo not drawn) [Et-β-CPL-CA, 3-(2-Cyano-acryloyloxy)-hexanoic acid ethyl ester] | 4.49 ± 0.68 Ib | bonded the fingertips strongly within one minute |

| SMILES | Glass Transition Temperature (Tg, ° C.) [2] | Load (maximum load for the lap shear joint to fail) [1] | Bonding of fingertips [3] |
| --- | --- | --- | --- |
| C=C(C#N)C(=O)OC(C)C(=O)OCCCC (centres unmarked) [Bu-Lac-CA, 2-Cyano-acrylic acid 1-butoxycarbonyl-ethyl ester, reference compound] | 52 °C | 4.96 ± 0.67 Ib | bonded the fingertips strongly within one minute |
